Data set [1] can be described thus: Upregulation of ABCA1 expression in human HepG2 cells expressing luciferase plasmid incubated for 24 hrs by luciferase reporter gene assay. The class given is functional, cell-based. Particulars: HepG2, 24 h. For orientation: A reporter such as luciferase makes a cellular process visible.
Data set [2] can be described thus: Upregulation of ABCA1 expression in human HepG2 cells expressing luciferase plasmid assessed as maximal increase incubated for 24 hrs by luciferase reporter gene assay relative to control. The class given is functional.
For data set [3], the system named is RAW264.7. Put plainly: Upregulation of ABCA1 mRNA expression in mouse RAW264.7 cells at 2.5 to 10 uM incubated for 24 hrs by RT-qPCR analysis. The format is functional, cell-based. Particulars: dose microM 2.5-10, time 24.0 hrs. Background: In qPCR the cycle at which signal appears reflects the starting amount.
The test system of data set [4] is HepG2. Description: Cytotoxicity against human HepG2 cells assessed as reduction in cell viability incubated for 72 hrs measured by CCK8 assay. The class given is cell-based. Particulars: hepg2, 72 h.
Data set [5] is described as follows: Upregulation of ABCA1 expression in human HepG2 cells expressing luciferase plasmid assessed as maximal fold increase incubated for 24 hrs by luciferase reporter gene assay relative to control. The format is functional.
Data set [6] relates to RAW264.7. Put plainly: Upregulation of ABCA1 protein expression in mouse RAW264.7 cells at 2.5 to 10 uM incubated for 24 hrs by western blot analysis. The format is functional, cell-based. To be noted: dose microM 2.5-10, time 24.0 hrs. In general terms: Immunoblotting shows a protein as a band on a membrane.
A short description of data set [7]: Upregulation of ABCA1 mRNA expression in mouse RAW264.7 cells assessed as maximal upregulation at 10 uM incubated for 24 hrs by RT-qPCR analysis relative to control. The class given is functional.
The test system of data set [8] is RAW264.7. Put plainly: Upregulation of ABCA1 protein expression in mouse RAW264.7 cells incubated for 24 hrs by western blot analysis. The class given is functional, cell-based. To be noted: dose microM 2.5-10, time 24.0 hrs.
Data set [9] deals with HepG2. Description: Upregulation of ABCA1 expression in human HepG2 cells expressing luciferase plasmid incubated for 24 to 48 hrs by luciferase reporter gene assay. The format is functional, cell-based. Particulars: dose microM 0.78-50, time hrs 24-48.
Data set [10] is described as follows: Potency index, ration of WY06 EC50 to test compound EC50 for upregulation of ABCA1 expression in human HepG2 cells expressing luciferase plasmid incubated for 24 hrs by luciferase reporter gene assay. The class given is functional.
In data set [11] the test system is RAW264.7. Put plainly: Induction of cholesterol efflux in mouse RAW264.7 cells assessed as decrease in cellular 22-NBD-cholesterol content at 2.5 to 10 uM incubated for 24 hrs by DAPI staining based fluorescence analysis. To be noted: dose microM 2.5-10, time 24.0 hrs. The format is functional, cell-based.
Data set [12] can be described thus: Upregulation of ABCA1 protein expression in mouse RAW264.7 cells assessed as maximal increase at 10 uM incubated for 24 hrs by western blot analysis relative to control. The class given is functional.
Data set [13] has as its system RAW264.7. Description: Upregulation of ApoA-I protein expression in mouse RAW264.7 cells at 2.5 to 10 uM by western blot analysis. Particulars: dose microM 2.5-10. The format is functional, cell-based.
Data set [14] in a line: Upregulation of ABCA1 mRNA expression in mouse RAW264.7 cells assessed as maximal fold increase at 5 uM incubated for 24 hrs by RT-qPCR analysis relative to control. The format is functional.
Data set [15] relates to RAW264.7. Put plainly: Upregulation of ABCA1 mRNA expression in mouse RAW264.7 cells at 5 uM incubated for 24 hrs by RT-qPCR analysis. The format is functional, cell-based.

Calls of active or inactive are those of the source. No cut-off for these calls is given here.

For `C=CCN(c1nc2ccc(Cl)cc2s1)S(=O)(=O)c1ccc(N)cc1`, the EC50 (as a rule, the concentration giving half of the maximal effect) in [1] was determined as 10.6 µM. For the same molecule, the Activity in [2] was 135%.

Turning to `C=CCN(c1nc2ccc(F)cc2s1)S(=O)(=O)c1cccc(N)c1`, the midpoint of the response in data set [1], the EC50, lay at 26 µM. Besides, the Activity in data set [2] came out at 152%.

As for `N#CCN(c1nc2ccc(F)cc2s1)S(=O)(=O)c1ccc(N)cc1`, in [1], it took 2.57 µM to reach a half-maximal effect (EC50). The Activity in data set [2] is given as 163%.

In data set [1], `N#CCN(c1nc2ccccc2s1)S(=O)(=O)c1ccc(N)cc1` had an EC50 of 8.51 µM. In addition, the Activity in data set [2] is reported as 157%.

Turning to `CCOC(=O)CN(c1nc2ccc(OC)cc2s1)S(=O)(=O)c1ccc(N)cc1`, the result with RAW264.7 [3] and in the data set on RAW264.7 [6] was inactive. The Activity entry in the data set with HepG2 [4] is reported as “Non-Toxic”; in data set [2], 138%. The molecule further yielded an EC50 in [1] of 6.38 µM. The “fold change (FC)” value in [5] is on record as 1.38.

With `C=CCN(c1nc2ccccc2s1)S(=O)(=O)c1cccc(N)c1`, the EC50 in data set [1] was over 50 µM. Also, the Activity in data set [2] turned out to be 136%.

For `CCOC(=O)CN(c1nc2ccccc2s1)S(=O)(=O)c1ccc(N)cc1`, the Activity entry in the data set on HepG2 [4] is listed as “Non-Toxic”; in data set [2], 209%. In addition, in [1], the EC50 worked out at 1.24 µM.

For the molecule `N#CCN(c1nc2ccc(Cl)cc2s1)S(=O)(=O)c1ccc(N)cc1`, the Activity in [7] is 210%; with RAW264.7 [8] it was “Dose-dependent effect”; with HepG2 [4] it was “Non-Toxic”; in the data set with HepG2 [9], “Dose-dependent effect”; in [2], 206%; in data set [12], 240%. Further, in data set [10], the “Ratio EC50” value was over 15. In [1], the EC50 came to 0.41 µM. Besides, the result in the data set on RAW264.7 [11] was Active. For the same molecule, in the data set on RAW264.7 [13], the result was inactive.

For the molecule `C=CCN(c1nc2ccccc2s1)S(=O)(=O)c1ccc(N)cc1`, a half-maximal effect in data set [1] (EC50) was put at 33.4 µM. Moreover, in data set [2], the Activity is reported as 115%.

Regarding `CCOC(=O)CN(c1nc2ccc(F)cc2s1)S(=O)(=O)c1ccc(N)cc1`, the results for the Activity result (with HepG2 [4]; in [2]) were “Non-Toxic” and 167%, respectively. In addition, the EC50 in data set [1] worked out at 0.97 µM.

Turning to `N#CCN(c1nc2ccccc2s1)S(=O)(=O)c1cccc(N)c1`, in data set [1], the EC50 is over 50 µM. Further, the Activity in [2] was determined as 124%.

Molecule `C=CCN(c1nc2ccc(F)cc2s1)S(=O)(=O)c1ccc(N)cc1` showed an EC50 in data set [1] of 7.4 µM. Besides, in [2], the Activity is on record as 135%.

Consider `N#CCN(c1nc2ccc(Cl)cc2s1)S(=O)(=O)c1cccc(N)c1`, for which the Activity entry was “Dose-dependent effect” in the data set with RAW264.7 [8], “Non-Toxic” in the data set on HepG2 [4] and 168% in data set [2]. In [1], this molecule came in with an EC50 of 5.84 µM. Besides, the “fold change (FC)” value in data set [14] is recorded as 1.5; in data set [5] it was 1.68.

Turning to `CCOC(=O)CN(c1nc2ccc(Cl)cc2s1)S(=O)(=O)c1ccc(N)cc1`, the Activity result in the data set with RAW264.7 [8] is “Dose-dependent effect”; in the data set with HepG2 [4] it was “Non-Toxic”; in data set [2], 174%. Moreover, in data set [10], the “Ratio EC50” value is reported as “>=15”. The molecule also showed an EC50 in data set [1] of 0.37 µM. Besides, the “fold change (FC)” value in data set [5] is listed as 1.74. In addition, the outcome in the data set on RAW264.7 [15] was Active.

(Values after ChEMBL document CHEMBL4699402, “Identification of N-benzothiazolyl-2-benzenesulfonamides as novel ABCA1 expression upregulators” (RSC Med Chem, 2020).)
